Assay results: patent publication US20040253718A1, “Methods of producing neurons” (priority 2003, published 2004)

Key:
[1] = tested on: UMC from skin and adipose tissue; assay: Culture of non-adherent UMC from skin and adipose tissue; assay type: cell-based, human
Method: Cells were harvested and enriched in vitro for UMC by initiation of cultures from a skin biopsy obtained from a normal healthy human volunteer as follows. Biopsies of about 10 to about 200 mm^3 were obtained from the post auriculum area, and fibroblast tissue culture initiated as described above using DMEM containing 4500 mg/L D-glucose, 2 mM L-glutamine, nonessential amino acids, and 10% FBS. Colonies of non-adherent, actively growing cells were observed after adherent fibroblasts had reached full confluence in passage two or three. This process could be shortened by initiation of the culture in low serum and by the presence of 5 ng/ml aFGF, or by growth of the cells in a plasma clot directly from tissue (see Example 2) with addition of 300 mM CaCl2 to a final concentration of 15 mM. […] The colonies were collected by aspiration of culture medium containing the floating colonies and centrifugation of this medium. The cells pelleted by centrifugation were transferred to new tissue culture vessels by direct seeding in fresh culture medium containing aFGF and heparin (DMEM containing 4500 mg/L D-glucose, 2 mM L-glutamine, 2.5% heat inactivated FBS, 5 ng/mL recombinant human aFGF, and 5 μg/mL heparin). The cell suspension was added to fresh tissue culture flasks, which were incubated at 37° C. […]

dermal-derived UMC = assay: Culture of UMC in plasma clots to generate neurons; assay type: cell-based, human; conditions: aFGF as the only growth factor in the culture medium
Method: The presence of higher concentration of Ca^2+ than normally present in culture medium (i.e., about 2 mM) was essential for growth of neurons in the plasma clot UMC cultures.
Lyophilized bovine plasma (Sigma Aldrich Co., St. Louis, Mo.; Cat. No. P-4639) was reconstituted with an appropriate volume of tissue culture medium not containing heparin, e.g., DMEM or Neurobasal medium (see above). An appropriate volume of a stock solution of CaCl2 (e.g., 300 mM) was added to a series of plastic tissue culture dishes (one set having a diameter of 30 mm and another set having a diameter of 60 mm) so as to give a final concentration of 15 mM after addition of plasma. Plasma was added to the culture dishes (1 ml to 30 mm dishes and 2 ml to the 60 mm dishes), which were swirled in order to mix the CaCl2 and plasma. […]
The dishes were then incubated at room temperature or 37° C. until the plasma had clotted. […] The dishes were then stored in a tissue culture incubator at 37° C. in at atmosphere of 10% CO2 until ready for use. A small quantity (about 5 cells to about 10^5 cells per clot) of dermal-derived UMC prepared as described in Example 1 was added to each dish and the cells were allowed to settle onto each clot. […]

Substance: aFGF: recombinant human acidic fibroblast growth factor
- morphology of cells in culture ([1]; in the presence of aFGF): morphologically homogeneous in appearance and had a cobblestone-like morphology
- fate of cells in culture ([1]; upon removal of aFGF from the culture medium): most of the cells fully differentiated into adherent fibroblasts
- growth of human neurons (dermal-derived UMC): Enhanced growth
